Where only a bound is given, the exact number is not on record here.

For this assay, the target named is Integrin alpha-IIb/beta-3 (Canis lupus familiaris). The experiment in a line: Inhibition of 125I-fibrinogen binding to alpha IIb beta-3 integrin as inhibition of activated platelets.
As to `CN1C(=O)[C@@H](CCCCNC(=O)c2ccc(NNC(=O)OC(C)(C)C)nc2)NC(=O)c2cccc(c2)CNC(=O)[C@H](CC(=O)O)NC(=O)CNC(=O)[C@@H]1CCCN=C(N)N`, the concentration for half-maximal inhibition (IC50) stood at 16 nM. This lies in the double-digit nanomolar range. With `CC(C)[C@H]1NC(=O)c2cc(cc(NC(=O)CCCCCNC(=O)c3ccc(NN)nc3)c2)CNC(=O)[C@H](CC(=O)O)NC(=O)CNC(=O)[C@H](CCCN=C(N)N)N(C)C1=O`, the IC50 stood at 8 nM.

`CC(C)[C@H]1NC(=O)c2cccc(c2)CNC(=O)[C@H](CC(=O)O)NC(=O)CNC(=O)[C@H](CCCN=C(N)N)N(C)C1=O` yielded a concentration for half-maximal inhibition (IC50) of 6 nM. As for `CCOC(C)SCC(=O)NCC(CCC(=O)NCCCCCC(=O)Nc1cc2cc(c1)C(=O)N[C@H](C(C)C)C(=O)N(C)[C@@H](CCCN=C(N)N)C(=O)NCC(=O)N[C@@H](CC(=O)O)C(=O)NC2)NC(=O)CSC(C)OCC` (stereo partly drawn), the figure is 13 nM; as for `CC(C)[C@H]1NC(=O)c2cc(cc(NC(=O)CCCCCNC(=O)c3ccc(NNC(=O)OC(C)(C)C)nc3)c2)CNC(=O)[C@H](CC(=O)O)NC(=O)CNC(=O)[C@H](CCCN=C(N)N)N(C)C1=O`, 9 nM; as for `CCOC(C)SCC(=O)NCC(CCC(=O)NCCCC[C@H]1NC(=O)c2cccc(c2)CNC(=O)[C@H](CC(=O)O)NC(=O)CNC(=O)[C@H](CCCN=C(N)N)N(C)C1=O)NC(=O)CSC(C)OCC` (stereo partly drawn), 11 nM. As for `CC(C)[C@H]1NC(=O)c2cc(cc(NC(=O)CCCCCNC(=O)c3ccc(CN(CCSC(c4ccccc4)(c4ccccc4)c4ccccc4)CC(=O)NCCSC(c4ccccc4)(c4ccccc4)c4ccccc4)cc3)c2)CNC(=O)[C@H](CC(=O)O)NC(=O)CNC(=O)[C@H](CCCN=C(N)N)N(C)C1=O`, the figure is more than 1000 nM; as for `CC(C)[C@H]1NC(=O)c2cc(cc(NC(=O)CCCCCN)c2)CNC(=O)[C@H](CC(=O)O)NC(=O)CNC(=O)[C@H](CCCN=C(N)N)N(C)C1=O`, 5 nM.

By IC50 is commonly meant the point on the concentration scale where inhibition reaches its midpoint. Read a low IC50 as inhibition by little substance.

These data come from ChEMBL document CHEMBL1151518, “Synthesis, evaluation and Tc-99m complexation of a hydrazinonicotinyl conjugate of a GP IIb/IIIa antagonist cyclic peptide for the detection of deep vein thrombosis” (Bioorg Med Chem Lett, 1997).
